Results published in patent US20250354111A1, “BOVINE SEX-SORTED SPERM SORTING SOLUTION MEDIATED BY SMALL MOLECULE COMPOUND AND ITS APPLICATION” (Inner Mongolia University, priority 2024, published 2025).

Test system: bovine sperm
Assay: Effect of creatine concentration on sorting of X and Y sperm in sorting solution with 24e drug (Example 2)
Format: cell-based
Details: creatine 500 μM with 24e drug 0.3 μM; 37° C., 60 min; 6x107 sperm/mL
Procedure: Based on the exploration in Example 1 that the range of 0.27 μM-0.33 μM is the optimal concentration range for the 24e drug to sort bovine sperm, the effect of creatine on the sperm sorting effect was examined by incubating bovine sperm with creatine added to the sorting solution with a 24e drug concentration of 0.3 μM.
Fresh bovine semen provided by the Grassland Livestock Germplasm Innovation and Breeding Base of Inner Mongolia University was used, washed with in vitro fertilization solution, and after dilution, the sperm density was 6x107 sperm/mL. At 37° C., the 24e drug was added to the sperm sorting protection solution to make the final concentration of the 24e drug 0.3 μM. On this basis, creatine was added, and bovine sperm was incubated for 60 min. The amounts of creatine used were 0 μM (control group), 200 μM, 300 μM, 400 μM, 500 µM, and 600 μM. The sorting effect of sperm at each creatine concentration was obtained by analyzing the sperm in the upper and lower layers, as shown in FIG. 2. […] In the upper layer of sperm, the percentage of X sperm is 22%, and the percentage of Y sperm is 78%. Creatine can enhance the activity of sperm, so that Y sperm floats up faster, while the activity of X sperm is inhibited by the 24e drug and sinks, making the stratification more obvious and improving the sorting efficiency. When the sperm density is 6x10^7 sperm/mL, the concentration of the 24e drug is 0.27 μM-0.33 μM, and the creatine concentration is 500 μM-600 μM, the sorting effect on bovine sperm is the best.

**Q.** How did the “percentage of X sperm in the lower layer of sorted sperm” value turn out when CN(CC(=O)O)C(=N)N [creatine] was run?
**A.** 70.33%

**Q.** And the “percentage of X sperm in the upper layer of sperm” value?
**A.** 22%

**Q.** And the “percentage of Y sperm in the lower layer of sorted sperm” value?
**A.** 29.67%

**Q.** And the “percentage of Y sperm in the upper layer of sperm” value?
**A.** 78%
